Source: patent US8067447B2, “Modulators of glucocorticoid receptor, AP-1, and/or NF-κB activity and use thereof” (Bristol-Myers Squibb Company, priority 2006, dated 2011)
Like-named read-outs stand apart in the source and are kept apart here.

Key:
[1] = test system: AP-1 induced transcriptional activity; test: Cellular Transrepressional Assay (AP-1 luciferase reporter in A549 cells, PMA-activated); assay type: cell-based; conditions: Homo sapiens, A549, 7 h, A549 cells with 7x AP-1 luciferase reporter, 10 ng/ml PMA, read-out: AP-1 (EC50, nM) (Cellular Transrepression Assay)
Method: To measure the ability of test molecules to inhibit AP-1 induced transcriptional activity an A549 cell was utilized which was stably transfected with a plasmid containing 7× AP-1 DNA binding sites (pAP-1-Luc plasmid, Stratagene Co. La Jolla, Calif.) followed by the gene for luciferase. Cells were activated with 10 ng/ml of […] (PMA) plus or minus test molecules for 7 hours. After 7 hours a luciferase reagent was added to measure luciferase enzymatic activity in the cell. After a 10 minute incubation of luciferase reagent with cells, luminescence was measured in a TopCount luminescence counter. Repression of AP-1 activity was calculated as the percentage decrease in the signal induced by PMA alone. Test molecules were analyzed in the concentration range from 0.1 nM to 40 μM. EC50s were determined by using standard curve fitting methods such as Excel fit (Microsoft Co.).

[2] = target: T1, human glucocorticoid receptor (Homo sapiens, UniProt P04150); test: Glucocorticoid Receptor Binding Assay (I), fluorescence polarization competitor kit (Fluormone GS Red); conditions: purified human recombinant full-length GR 2 nM, 1 nM Fluormone GS Red, FP
T1 construct: purified human recombinant full-length glucocorticoid receptor (2 nM); purchased Invitrogen Part #2893
T1 sequence (P04150 1-777): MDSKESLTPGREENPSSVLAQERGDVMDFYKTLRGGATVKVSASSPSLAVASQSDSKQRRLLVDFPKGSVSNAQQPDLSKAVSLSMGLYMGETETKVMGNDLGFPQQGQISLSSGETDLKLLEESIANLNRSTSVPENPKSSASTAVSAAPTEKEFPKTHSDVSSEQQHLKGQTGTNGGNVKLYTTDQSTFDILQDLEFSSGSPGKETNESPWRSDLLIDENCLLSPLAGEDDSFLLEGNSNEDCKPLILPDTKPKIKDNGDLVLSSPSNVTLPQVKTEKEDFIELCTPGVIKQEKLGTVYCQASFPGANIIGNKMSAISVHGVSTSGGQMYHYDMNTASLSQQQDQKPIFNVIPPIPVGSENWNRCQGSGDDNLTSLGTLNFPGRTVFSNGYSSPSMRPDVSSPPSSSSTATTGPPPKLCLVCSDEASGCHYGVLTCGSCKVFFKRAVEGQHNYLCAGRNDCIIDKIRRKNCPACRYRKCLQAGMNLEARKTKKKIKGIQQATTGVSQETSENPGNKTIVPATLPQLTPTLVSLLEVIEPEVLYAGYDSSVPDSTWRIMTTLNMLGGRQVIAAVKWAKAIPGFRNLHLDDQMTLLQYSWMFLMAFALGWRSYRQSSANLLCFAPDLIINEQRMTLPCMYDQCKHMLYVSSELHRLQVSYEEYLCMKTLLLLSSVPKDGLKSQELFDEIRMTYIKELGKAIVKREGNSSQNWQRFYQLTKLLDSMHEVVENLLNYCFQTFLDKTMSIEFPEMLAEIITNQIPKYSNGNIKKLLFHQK
Method: Briefly, purified human recombinant full-length glucocorticoid receptor (2 nM) was mixed with fluorescently labeled glucocorticoid (1 nM Fluormone GS Red) in the presence or absence of test compound. After two hour incubation at room temperature in the dark, the fluorescence polarization (FP) of the samples was measured. […] Test compounds were analyzed in the concentration range from 8.5E-05 μM to 5 μM.

[3] = read-out: GR (Ki, nM) (GR Binding Assay (I))

Structure (SMILES) | EC50 [1] | Ki [2, 3] | Ki ([2]; GR (Ki, nM) (GR Binding Assay (I)))
CC(C)(C(=O)Nc1nncs1)C(c1ccccc1)c1ccc2nn(Cc3ccccc3)cc2c1 (stereo not shown) [Example 73, 3-(2-benzyl-2H-indazol-5-yl)-2,2-dimethyl-3-phenyl-N-(1,3,4-thiadiazol-2-yl)propanamide] | > 10000 nM | 46 nM | –
CC(C)(C(=O)Nc1nncs1)C(c1ccccc1)c1ccc2c(cnn2CCCO)c1 (stereo not shown) [Example 75, 3-(1-(3-hydroxypropyl)-1H-indazol-5-yl)-2,2-dimethyl-3-phenyl-N-(1,3,4-thiadiazol-2-yl)propanamide] | 1020 nM | 17 nM | –
CC(C)(C(=O)Nc1nncs1)C(c1ccccc1)c1ccc2c(cnn2CCCCO)c1 (stereo not shown) [Example 76, 3-(1-(4-hydroxybutyl)-1H-indazol-5-yl)-2,2-dimethyl-3-phenyl-N-(1,3,4-thiadiazol-2-yl)propanamide] | 267 nM | 9.3 nM | –
CC(C)(C(=O)Nc1nncs1)C(c1ccccc1)c1ccc2nn(CCCCO)cc2c1 (stereo not shown) [Example 77, 3-(2-(4-hydroxybutyl)-2H-indazol-5-yl)-2,2-dimethyl-3-phenyl-N-(1,3,4-thiadiazol-2-yl)propanamide] | 951 nM | 23 nM | –
CC(C)(C(=O)Nc1nccs1)C(c1ccccc1)c1ccc2c(cnn2-c2ccccn2)c1 (stereo not shown) [Example 79, 2,2-dimethyl-3-phenyl-3-(1-(pyridin-2-yl)-1H-indazol-5-yl)-N-(thiazol-2-yl)propanamide] | 2480 nM | 10 nM | –
CC(C)(C(=O)Nc1nccs1)C(c1ccccc1)c1ccc2c(cnn2-c2ccncc2)c1 (stereo not shown) [Example 81, 2,2-dimethyl-3-phenyl-3-(1-(pyridin-4-yl)-1H-indazol-5-yl)-N-(thiazol-2-yl)propanamide] | 1290 nM | 11 nM | –
CC(C)(C(=O)Nc1nccs1)C(c1ccccc1)c1ccc2c(cnn2-c2cccnc2)c1 (stereo not shown) [Example 85, 2,2-dimethyl-3-phenyl-3-(1-(pyridin-3-yl)-1H-indazol-5-yl)-N-(thiazol-2-yl)propanamide] | 40 nM | – | 7.8 nM

Second part, the compound after the results:

EC50 [1] | Ki [2, 3] | Ki ([2]; GR (Ki, nM) (GR Binding Assay (I))) | Structure (SMILES)
> 10000 nM | 152 nM | – | CC(C)(C(=O)Nc1nncs1)C(c1ccccc1)c1ccc2c(cnn2CCc2ccccc2)c1 (stereo not shown) [Example 74, 2,2-dimethyl-3-(1-phenethyl-1H-indazol-5-yl)-3-phenyl-N-(1,3,4-thiadiazol-2-yl)propanamide]
127 nM | 8.1 nM | – | CC(C)(C(=O)Nc1nncs1)C(c1ccccc1)c1ccc2c(cnn2-c2ccccn2)c1 (stereo not shown) [Example 80, 2,2-dimethyl-3-phenyl-3-(1-(pyridin-2-yl)-1H-indazol-5-yl)-N-(1,3,4-thiadiazol-2-yl)propanamide]
491 nM | 20 nM | – | CC(C)(C(=O)Nc1nncs1)C(c1ccccc1)c1ccc2c(cnn2-c2ccncc2)c1 (stereo not shown) [Example 82, 2,2-dimethyl-3-phenyl-3-(1-(pyridin-4-yl)-1H-indazol-5-yl)-N-(1,3,4-thiadiazol-2-yl)propanamide]
230 nM | 8.8 nM | – | COc1ccc(-n2ncc3cc(C(c4ccccc4)C(C)(C)C(=O)Nc4nncs4)ccc32)cc1 (stereo not shown) [Example 83, 3-(1-(4-methoxyphenyl)-1H-indazol-5-yl)-2,2-dimethyl-3-phenyl-N-(1,3,4-thiadiazol-2-yl)propanamide]
306 nM | 7.2 nM | – | CC(C)(C(=O)Nc1nncs1)C(c1ccccc1)c1ccc2c(cnn2-c2ccc(O)cc2)c1 (stereo not shown) [Example 84, 3-(1-(4-hydroxyphenyl)-1H-indazol-5-yl)-2,2-dimethyl-3-phenyl-N-(1,3,4-thiadiazol-2-yl)propanamide]
20 nM | 5 nM | – | CC(C)(C(=O)Nc1nncs1)C(c1ccccc1)c1ccc2c(cnn2-c2ccccc2)c1 (stereo not shown) [Example 87, 2,2-dimethyl-3-phenyl-3-(1-phenyl-1H-indazol-5-yl)-N-(1,3,4-thiadiazol-2-yl)propanamide]
> 10000 nM | 85 nM | – | CC(C)(C(=O)Nc1nncs1)C(c1ccccc1)c1ccc2c(cnn2-c2ccc(C(F)(F)F)cc2)c1 (stereo not shown) [Example 90, 2,2-dimethyl-3-phenyl-N-(1,3,4-thiadiazol-2-yl)-3-(1-(4-(trifluoro-methyl)phenyl)-1H-indazol-5-yl)propanamide]
